In patent publication US20150051186A1, “ARYL AZETIDINE DERIVATIVES AS SPHINGOSINE-1 PHOSPHATE RECEPTORS MODULATORS” (Allergan, Inc., priority 2013, published 2015):

target: T1, human S1P1 receptor (Homo sapiens, UniProt P21453); test: GTP γ35S binding assay for S1P1 activity; format: biochemical; conditions: membranes of cells stably expressing the S1P1 receptor, agonist potency
T1 construct: expressed in transfected cells; membranes were used
Protocol: Compounds were synthesized and tested for S1P1 activity using the GTP γ^35S binding assay. These compounds may be assessed for their ability to activate or block activation of the human S1P1 receptor in cells stably expressing the S1P1 receptor.
GTP γ^35S binding was measured in the medium containing (mM) HEPES 25, pH 7.4, MgCl2 10, NaCl 100, dithiothreitol 0.5, digitonin 0.003%, 0.2 nM GTP γ^35S, and 5 μg membrane protein in a volume of 150 μl. Test compounds were included in the concentration range from 0.08 to 5,000 nM unless indicated otherwise. Membranes were incubated with 100 μM 5′-adenylylimidodiphosphate for 30 min, and subsequently with 10 μM GDP for 10 min on ice. Drug solutions and membrane were mixed, and then reactions were initiated by adding GTP γ^35S and continued for 30 min at 25° C. Reaction mixtures were filtered over Whatman GF/B filters under vacuum, and washed three times with 3 mL of ice-cold buffer (HEPES 25, pH7.4, MgCl2 10 and NaCl 100). Filters were dried and mixed with scintillant, and counted for ^35S activity using a β-counter. Agonist-induced GTP γ^35S binding was obtained by subtracting that in the absence of agonist. Binding data were analyzed using a non-linear regression method. In case of antagonist assay, the reaction mixture contained 10 nM […] in the presence of test antagonist at concentrations ranging from 0.08 to 5000 nM.

T1 sequence (P21453 whole entry): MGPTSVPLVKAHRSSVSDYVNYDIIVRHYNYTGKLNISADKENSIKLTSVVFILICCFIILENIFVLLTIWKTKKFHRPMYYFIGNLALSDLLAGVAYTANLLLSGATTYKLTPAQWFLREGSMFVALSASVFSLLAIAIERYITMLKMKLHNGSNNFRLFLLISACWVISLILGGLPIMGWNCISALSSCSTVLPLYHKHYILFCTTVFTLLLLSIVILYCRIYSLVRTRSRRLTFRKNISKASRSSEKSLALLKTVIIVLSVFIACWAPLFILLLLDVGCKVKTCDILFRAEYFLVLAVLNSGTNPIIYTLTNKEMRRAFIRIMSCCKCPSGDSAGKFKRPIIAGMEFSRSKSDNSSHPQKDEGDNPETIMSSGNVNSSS

Row | EC50 [nM] | SMILES
1 | 129 | O=C(O)C1CN(CCCCCCCCC(Cc2ccccc2)c2cccc(Cl)c2)C1 (stereo not shown) [Compound 1, 1-[9-(3-Chlorophenyl)-10-phenyldecyl]azetidine-3-carboxylic acid]
2 | 61.4 | Cc1ccc(CC(CCCCCCCN2CC(C(=O)O)C2)c2cc(F)cc(F)c2)cc1C (stereo not shown) [Compound 2, 1-[8-(3,5-Difluorophenyl)-9-(3,4-dimethylphenyl)nonyl]azetidine-3-carboxylic acid]
3 | 801 | Cc1ccc(CC(CCCCCCN2CC(C(=O)O)C2)c2cccc(Cl)c2)cc1C (stereo not shown) [Compound 3, 1-[7-(3-Chlorophenyl)-8-(3,4-dimethylphenyl)octyl]azetidine-3-carboxylic acid]
4 | 644 | Cc1ccc(CC(CCCCCCCN2CC(C(=O)O)C2)c2cccc(Cl)c2)cc1C (stereo not shown) [Compound 4, 1-[8-(3-Chlorophenyl)-9-(3,4-dimethylphenyl)nonyl]azetidine-3-carboxylic acid]
